Where two headings read alike, the source gives them in different places.
Tests used:
[1] = cited from earlier work
[2] = Healthy human volunteer plasma pharmacokinetics of PTH 1-34 (open cross-over, ELISA); type: in vivo; conditions: human
Protocol: An open cross-over clinical IMP (investigative medicinal product) study was conducted in seven healthy female subjects aged over 55 years (mean age 67.7, range 58 to 81 years). Each participant provided informed consent in accordance with ethical committee requirements and good clinical practice. Pre-study screening assessments were carried out within 21 days of the participants receiving their first dose (Supplementary Materials: Section S1). Inclusion and exclusion criteria were applied (Supplementary Materials: Section S2). Participants were admitted to the study centre on the morning of dosing, having abstained from alcohol and smoking for at least 24 h previously and fasted from midnight. Participants were given a light meal on arrival. A cannula was then positioned in the participant’s arm or hand to facilitate the collection of blood samples. The pre-dose sample was taken. Participants received a single subcutaneous injection of 20 μg teriparatide into the abdomen at their first trial visit. Following a seven day wash out period, each participant self-administered 90 μg PTH 1-34 from the nasal spray formulation using the Rexam SP270 nasal spray device; the patients had previously been trained in operation of the Rexam device. Any episodes of sneezing after administration of the nasal formulation were recorded. The nasal spray formulation contained Tc-99m-DTPA, 3–5 MBq per Rexam SP270 nasal spray dose, resulting in an effective radiation dose of less than 0.14 mSv to each participant.
Following either subcutaneous or intranasal dosing, 10 mL blood samples (Becton Dickinson sodium heparin) were taken at 5, 15, 30, 60 120, 180, 240, 300 and 360 min. After each sample was taken, the cannula was flushed with 10 mL 0.9% saline. Blood was stored on ice and centrifuged within 30 min to prepare plasma (4 °C, 1100–1300 g, 10 min). These samples were stored at −20 °C before dispatching to Simbec Research Ltd. (Merthyr Tydfil, UK) for quantification by validated ELISA, in compliance with The UK Good Laboratory Practice Regulations 1999 (Statutory Instrument No. 310 6) and subsequent amendment, OECD Principles of Good Laboratory Practice (Paris 1998) and EC Commission Directive 2004/10/EC of February 2004.
Pharmacokinetic data were analysed using Phoenix® WinNonlin® 5.1 (Certara USA, Inc., Princeton, NJ, USA) from quantified PTH 1-34 in the plasma, using recorded sampling times. Summary statistics (mean, median, SD, coefficient of variation [CV%], minimum, maximum, n) and the following plasma pharmacokinetic parameters were calculated: • Cmax • Tmax • Terminal half-life (t1/2) • AUC to 2 h (AUC0–2h) • AUC to last measured time point (AUClast) and corresponding Frel for nasal formulation

[3] = human volunteers, nasal powder formulations with Solutol HS15 compared to subcutaneous injection of hGH; cited from earlier work
Source text: With the aim of improving upon the pharmacokinetics of the liquid nasal spray in humans, our continued research evaluated a bioadhesive powder formulation within a large animal (ovine) model. This is a model known to be highly representative of intranasal drug delivery that closely replicates the clinical findings. […] Likewise, we have published o ...

[4] = conscious rats, nasal liquid formulation with Solutol HS15 (10%), first 2 h after administration; cited from earlier work
[5] = human, subcutaneous injection, estimated

Tmax ([2]; female, plasma, sc, 20 ug, healthy female volunteers aged over 55 y, single 20 μg teriparatide subcutaneous injection into abdomen (Forsteo pen), plasma ELISA, mean of n = 7) [min] | AUC(0-t) ([2]; female, plasma, sc, 20 ug, healthy female volunteers aged over 55 y, single 20 μg teriparatide subcutaneous injection into abdomen (Forsteo pen), plasma ELISA, mean of n = 7, read-out: AUC0–2h (converted)) [ng·h/mL] | AUC(0-t) ([2]; female, plasma, sc, 20 ug, healthy female volunteers aged over 55 y, single 20 μg teriparatide subcutaneous injection into abdomen (Forsteo pen), plasma ELISA, mean of n = 7, read-out: AUC0–last (converted)) [ng·h/mL] | Cmax ([2]; female, plasma, sc, 20 ug, healthy female volunteers aged over 55 y, single 20 μg teriparatide subcutaneous injection into abdomen (Forsteo pen), plasma ELISA, mean of n = 7, read-out: Cmax) [ng/mL] | time by which teriparatide concentrations returned to zero ([2]; 20 μg teriparatide subcutaneous injection) [h] | elimination t1/2 ([2]; 20 μg teriparatide subcutaneous injection, mean) | half-life ([2]; sc, 20 ug, healthy female volunteers aged over 55 y, single 20 μg teriparatide subcutaneous injection into abdomen (Forsteo pen), plasma ELISA, mean of n = 7, read-out: t½) [min] | Compound | absolute bioavailability of subcutaneous injection ([1]; human subjects, subcutaneous injection into the abdominal wall, intravenous injection 100%) | prolongation in the time to reach peak concentration (Tmax), thigh as opposed to abdomen [1, 5] [min] | reduction in maximum plasma teriparatide concentrations (Cmax), thigh as opposed to abdomen [1, 5] [%] | slower rate of absorption, injection into the thigh as opposed to the abdomen [1, 5] [%] | relative bioavailability [3] | relative bioavailability [4] [%]
21.4 | 0.29 | 0.345 | 0.253 | ≤ 6 | approximately 1 h | 64.8 | CC[C@H](C)[C@H](NC(=O)[C@H](CCC(=O)O)NC(=O)[C@H](CO)NC(=O)[C@@H](NC(=O)[C@@H](N)CO)C(C)C)C(=O)N[C@@H](CCC(N)=O)C(=O)N[C@@H](CC(C)C)C(=O)N[C@@H](CCSC)C(=O)N[C@@H](Cc1cnc[nH]1)C(=O)N[C@@H](CC(N)=O)C(=O)N[C@@H](CC(C)C)C(=O)NCC(=O)N[C@@H](CCCCN)C(=O)N[C@@H](Cc1cnc[nH]1)C(=O)N[C@@H](CC(C)C)C(=O)N[C@@H](CC(N)=O)C(=O)N[C@@H](CO)C(=O)N[C@@H](CCSC)C(=O)N[C@@H](CCC(=O)O)C(=O)N[C@@H](CCCN=C(N)N)C(=O)N[C@H](C(=O)N[C@@H](CCC(=O)O)C(=O)N[C@@H](Cc1c[nH]c2ccccc12)C(=O)N[C@@H](CC(C)C)C(=O)N[C@@H](CCCN=C(N)N)C(=O)N[C@@H](CCCCN)C(=O)N[C@@H](CCCCN)C(=O)N[C@@H](CC(C)C)C(=O)N[C@@H](CCC(N)=O)C(=O)N[C@@H](CC(=O)O)C(=O)N[C@H](C(=O)N[C@@H](Cc1cnc[nH]1)C(=O)N[C@@H](CC(N)=O)C(=O)N[C@@H](Cc1ccccc1)C(=O)O)C(C)C)C(C)C [teriparatide] | up to 95% | 1.5 | 18 | 21 |  | 
 |  |  |  |  |  |  | hGH: human growth hormone (MW 22kDa), given nasally with Solutol HS15 in earlier studies |  |  |  |  | about 3% | 49
